Experimental findings from patent US10485814B2, “Nicotinamide riboside analogs and pharmaceutical compositions and uses thereof” (GlaxoSmithKline Intellectual Property (No. 2) Limited, priority 2014, dated 2019) are described below.

Entries after “also recorded” stand apart in the source; their conditions may differ.

The test system of this test is HaCaT cells (a human keratinocyte cell line). The test can be described thus: Intracellular NAD measurement in HaCaT cells (ADPR cyclase enzymatic assay, absorbance 405 nm). Type of test: cell-based. As for the experimental part:
HaCaT cells (AddexBio Technologies, San Diego, Calif., Passage 16-19) were grown in Medium DMEM/GlutMax (Life technologies, Grand Island, N.Y.) supplemented with 10% FBS (Life technologies) and Non-essential amino acids (NEAA, Life technologies) and then seeded in 12-well plates (Corning, Tewksbury, Mass.) with a density at 2×10^5 cells per well and 2 ml of culture medium in each well for overnight.
Stock solution of dihydronicotinamide riboside (NRH, GSK3008320A, GSK, RTP, NC) was prepared in ethanol at 100 mM (25.6 mg/ml) and stored at −20° C. Cells were treated with different concentrations of NRH for 3 hrs, washed twice with PBS containing 5 mM EDTA, and then subject to Nicotinamide adenine dinucleotide (NAD) measurement. In brief, acetonitrile (ACN) lysis buffer (Ammonium Acetate (50 mM) and 90% acetonitrile) was added to each well (200 μl/well) to lyse the cells at RT for 5-10 mins by gently rotating on a culture plate shaker at a low speed. Enzyme master mix (300 μM of 5-Amino-(3,4′-bipyridin)-6(1H)-one (Inamrinone) (Sigma-Aldrich), a substrate for ADP ribosyl cyclase (ADPR cyclase)) and 30 nM ADPR Cyclase (Sigma, St. Louis, Mo.), 7.5 μM of N-(2-fluoro-4-(methylsulfonyl)phenyl)-2-methyl-6-(thiazol-5-yl)isonicotinamide (a CD38 inhibitor) in 75 mM HEPES pH7 buffer (Life Technologies)) was added to the lysed cells (400 μl of enzyme master mix/well). Enzymatic reaction was incubated at RT for ˜30 min. At the end of incubation, the supernatant (200 μl) of the reaction solution from each well was transferred to each well of a 96-well plate and absorbance was read twice in the 96-well plate at 405 nm using a plate reader (Spectra Maxplus, Molecular Devices, Sunnyvale, Calif.). A mixture of enzyme master mix and ACN extraction solution at 2:1 ratio was used as a blank reference. NAD (Sigma) was used as a positive control.
HaCaT cells were grown as described in example 23 in the regular cell culture DMEM medium as described earlier or in the Epilife medium without nacinamide (Life Technologies). Cells were treated with different concentrations of NRH or niacinamide (NIA, DSM nutritional products) for 3 hrs, washed twice with PBS containing 5 mM EDTA, and then subject to Nicotinamide adenine dinucleotide (NAD) measurement as described in example 23. A mixture of enzyme master mix and ACN extraction solution at 2:1 ratio for a blank reference. NAD (Sigma) was used as a positive control. […] Both the CD38 inhibitor and Niacinamide increased NAD in the HaCaT cells cultured in the Vit B3 depleted culture medium, and the induction of NAD by niacinamide was dose-dependent (solid bars). However, the induction of NAD by niacinamide (highest at ˜1.5 fold) was low compared to those by NRH. Therefore, NRH is a stronger NAD inducer compared to a CD38 inhibitor or Niacinamide.
HaCaT cells were grown in regular culture media as described in example 1 and seeded in 12-well plates with density at 2×10^5 cells per well and 1 ml of culture medium in each well. NRH stock solution was prepared in ethanol at 100 mM (25.6 mg/ml) and stored at −20° C. Stock solutions of NRH esters were made at 50 mM in DMSO (see FIG. 9B for compound info). Cells were treated with NRH esters and NRH at 150 μM for 6 and 16 hrs, washed twice with PB S containing 5 mM EDTA, and then subject to Nicotinamide adenine dinucleotide (NAD) measurement as described in example 23.
HaCaT cells were grown in regular culture media as described above and seeded in 12-well plates with density at 2×10^5 cells per well and 1 ml of culture medium in each well. NRH stock solution was prepared in ethanol at 100 mM (25.6 mg/ml) and stored at −20° C. NRH (200 μM) was used as a positive control. Because of the possible solubility issue related to NRH monoC16, fatty acid-free bovine serum albumin (defatted BSA, Sigma) was used as a carrier for the compound. NRH monoC16 stock solution (100×) was complexed with defatted BSA ([…]) prior to the treatment, resulting in a NRH monoC16 stock solution (10 ×). […]

Take `NC(=O)C1=CN([C@@H]2O[C@H](CO)[C@@H](O)[C@H]2O)C=CC1` [NRH, dihydronicotinamide riboside]: the NAD levels elevation (HaCaT in DMEM medium with Vit B3, 450 μM, 3 hrs) is listed as about 6 fold. In addition, the NAD level entry (HaCaT keratinocytes, different concentrations, 3 hrs, absorbance at 405 nm) is reported as “dose-dependently increases NAD; also recorded: dose-dependently increases NAD^+”. In addition, the NAD boosting activity result (HaCaT, 150 μM, 6 and 16 hrs) is “consistently showed strong activity on NAD elevation”.
